Test results as given in PubChem BioAssay AID652274 (Broad Institute, 2013).
Records with an inconclusive call do not appear.

Test system: washed human platelets, SFLLRN aggregation after wash, transmittance
Experiment: washed human platelet aggregation block persisting post-wash – cell-based, aggregometer, SFLLRN stimulus, single point, dry powder, mechanism study for PDI inhibitor project, late-stage follow-up (AID 652274)
Conditions: at 30 µM

## C/C1=C\C[C@H](OC(=O)c2ccc(O)cc2)/C(C)=C/[C@@H](O)C(C)(C)CCC1
  platelet aggregation inhibition after wash (%), hits give high values: 100%
